Measurements as given in patent US20050215626A1, “Substituted benzofuran oximes” (WYETH, priority 2003, published 2005).

Target: human PAI-1 (Homo sapiens, UniProt P05121)
Assay: Assay for determining the IC50 of inhibition of PAI-1 (active PAI-1 bound to tPA-coated plate, antibody detection)
Assay type: biochemical
Conditions: inhibition of Plasminogen Activator Inhibitor-1; test compounds 1-50 μM incubated with human PAI-1 (50 ng/ml), pH 7.5, human tPA-coated plate
Protocol: This assay is based upon the non-SDS dissociable interaction between tPA and active PAI-1. Assay plates are initially coated with human tPA (10 μg/ml). Test compounds are dissolved in DMSO at 10 mM, then diluted with physiologic buffer (pH 7.5) to a final concentration of 1-50 μM. The test compounds are incubated with human PAI-1 (50 ng/ml) for 15 minutes at room temperature. The tPA-coated plate is washed with a solution of 0.05% Tween 20 and 0.1% BSA, then the plate is blocked with a solution of 3% BSA. An aliquot of the test compound/PAI-1 solution is then added to the tPA-coated plate, incubated at room temperature for 1 hour, and washed. Active PAI-1 bound to the plate is assessed by adding an aliquot of a 1:1000 dilution of the 33B8 monoclonal antibody against human PAI-1, and incubating the plate at room temperature for 1 hour (Molecular Innovations, Royal Oak, Mich.). The plate is again washed, and a solution of goat anti-mouse IgG-alkaline phosphatase conjugate is added at a 1:50,000 dilution in goat serum. The plate is incubated 30 minutes at room temperature, washed, and a solution of alkaline phosphatase substrate is added. The plate is incubated 45 minutes at room temperature, and color development is determined at OD405 nm. The quantitation of active PAI-1 bound to tPA at varying concentrations of the test compound is used to determine the IC50. Results are analyzed using a logarithmic best-fit equation. The assay sensitivity is 5 ng/mi of human PAI-1 as determined from a standard curve ranging from 0-100 ng/ml.

Chain of human PAI-1 (P05121 24-402): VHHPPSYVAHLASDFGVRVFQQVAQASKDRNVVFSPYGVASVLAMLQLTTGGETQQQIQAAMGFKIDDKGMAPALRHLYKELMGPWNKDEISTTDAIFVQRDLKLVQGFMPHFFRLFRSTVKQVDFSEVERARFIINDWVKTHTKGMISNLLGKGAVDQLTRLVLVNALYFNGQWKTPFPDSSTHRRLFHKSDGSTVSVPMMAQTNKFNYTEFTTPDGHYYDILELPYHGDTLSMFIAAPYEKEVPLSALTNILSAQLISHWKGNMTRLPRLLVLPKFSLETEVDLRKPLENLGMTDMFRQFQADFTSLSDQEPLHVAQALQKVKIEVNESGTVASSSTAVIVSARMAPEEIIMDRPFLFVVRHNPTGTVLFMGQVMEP

Compound	IC50 [µM]
CCCCc1oc2ccccc2c1/C=N/OCCCOc1ccc(C(=O)O)c(NC(=O)c2ccc(C(C)(C)C)cc2)c1 [Compound 1, 4-[3-({[(1E)-(2-butyl-1-benzofuran-3-yl)methylidene]amino}oxy)propoxy]-2-[(4-tert-butylbenzoyl)amino]-benzoic acid]	44.4
CCCCc1oc2ccccc2c1/C=N/OCCCOc1ccc(CC(=O)O)cc1 [Compound 2, {4-[3-({[(1E)-(2-butyl-1-benzofuran-3-yl)methylidene]amino}oxy)propoxy]phenyl}acetic acid]	31.4
CCCCc1oc2ccccc2c1/C=N/OCCOc1ccc(C(=O)O)cc1Cl [Compound 4, 4-[2-({[(1E)-(2-butyl-1-benzofuran-3-yl)methylidene]amino]oxy)ethoxy]-3-chlorobenzoic acid]	24.8
CCCCc1oc2ccccc2c1/C=N/OCc1ccc(C(=O)O)c(Br)c1 [Compound 5, 2-bromo-4-[({[(1E)-(2-butyl-1-benzofuran-3-yl)methylidene]amino}oxy)methyl]benzoic acid]	29.2

Compounds with a lower IC50, results first:

IC50 [µM]	Compound
19.2	CCCCc1oc2ccccc2c1/C=N/OCCCOc1ccc(C(=O)O)c(O)c1 [Compound 3, 4-[3({[(1E)-(2-butyl-1-benzofuran-3-yl)methylidene]amino}oxy)propoxy]-2-hydroxybenzoic acid]
17.5	CCCCc1oc2ccccc2c1/C=N/OCCCOc1ccc(C(=O)O)cc1-c1ccc(C(F)(F)F)cc1 [Compound 6, 6-[3-({[(1E)-(2-butyl-1-benzofuran-3-yl)methylidene]amino}oxy)propoxy]-4′-(trifluoromethyl)-1,1′-biphenyl-3-carboxylic acid]
